Measured values as given in PubChem BioAssay AID1996.
≈ marks a conversion by molar mass, not a printed value.

Conditions: buffer; pH 7.4; 200.0 µM
`CCCCn1nc(CC(=O)NCCN(CC)CC)c2ccccc2c1=O` showed a solubility kinetic greater than 53.8 µg/mL.
For `CCc1ccc(CNC(=O)C(=O)NCC2CCCO2)cc1` (stereo not drawn), the solubility kinetic was 17.6 µg/mL (≈ 60.6 µM).
`COc1ccccc1NC(=O)COC(=O)Cn1cnc2c1c(=O)n(C)c(=O)n2C` showed a solubility kinetic greater than 60.2 µg/mL.
For `O=C(O)CCc1nc2ccccc2c(=O)[nH]1`, the solubility kinetic was greater than 32.7 µg/mL.
`CN1C(=O)c2cccc3c(S(=O)(=O)N(C)C)ccc1c23` showed a solubility kinetic of 14 µg/mL (≈ 48.2 µM).
For `O=C(CCNC(=O)c1ccc([N+](=O)[O-])cc1)NCCc1ccccc1`, the solubility kinetic was 13.8 µg/mL (≈ 40.4 µM).
In the case of `CC(=O)C1=C(C)NC(=O)NC1c1ccc2c(c1)OCO2` (stereo not drawn), the solubility kinetic was greater than 41.1 µg/mL.
`Cl.OCCN1CCN(CC/C=C2/c3ccccc3Sc3ccc(C(F)(F)F)cc32)CC1` gave a solubility kinetic of 60.1 µg/mL.
With `CCCCN(C(=O)COC(=O)c1ccccc1)c1c(N)n(CCC)c(=O)[nH]c1=O` the solubility kinetic was greater than 60.4 µg/mL.
Molecule `COc1cc(C(=O)N2C[C@H]3C[C@@H](C2)c2cccc(=O)n2C3)cc(OC)c1OC` has a solubility kinetic greater than 57.7 µg/mL.
Work on `CC(=O)c1ccccc1OCC(O)Cn1ccnc1` (stereo not drawn) yielded a solubility kinetic of 38.2 µg/mL (≈ 147 µM).
For `COc1ccc(-n2cc(-c3ccc(Br)cc3)[nH]c2=S)cc1`, the solubility kinetic was less than 0.4 µg/mL.
Work on `Cc1ccccc1NC(=O)C(=O)c1cn(C)c2ccccc12` yielded a solubility kinetic of less than 0.3 µg/mL.
Work on `Cc1ccc(F)cc1N=Cc1c(O)c2ccccc2oc1=O` yielded a solubility kinetic of less than 0.6 µg/mL.
`O=C(COC(=O)c1cc(F)cc(F)c1)NCCCc1ccccc1` showed a solubility kinetic of 3.7 µg/mL (≈ 11.1 µM).
With `CC(C)n1cnc2cc(NCc3ccccc3O)ccc21` the solubility kinetic was 32 µg/mL (≈ 114 µM).
`Cc1cc(C)cc(NC(=O)C[n+]2ccccc2)c1.[Cl-]` showed a solubility kinetic greater than 41.5 µg/mL.
In the case of `O=C(O)/C=C/c1cccc(NC(=O)c2ccccc2)c1`, the solubility kinetic was 34 µg/mL (≈ 127 µM).
`Cc1csc(NC(=O)c2cnc3ccccc3n2)n1` gave a solubility kinetic of 12.5 µg/mL (≈ 46.2 µM).
`NS(=O)(=O)c1ccc(CNC(=O)C2CCCN2C(=O)c2cccs2)cc1` (stereo not drawn) showed a solubility kinetic greater than 59 µg/mL.
Work on `O=C(O)c1cccnc1Sc1ccccc1Cl` yielded a solubility kinetic of 37.6 µg/mL (≈ 142 µM).
`COc1cccc(C(=O)Nc2cc(C)nn2-c2ccccc2)c1OC` gave a solubility kinetic greater than 50.6 µg/mL.
In the case of `NS(=O)(=O)c1ccc(NC(=O)c2ccc3nccnc3c2)cc1`, the solubility kinetic was 7.5 µg/mL (≈ 22.8 µM).
Molecule `Br.COc1ccc(NC2=NCCCCC2)cc1` has a solubility kinetic of 44.7 µg/mL.
For `O=C1CNC(=O)/C1=C/c1ccc(Br)cc1`, the solubility kinetic was 26.9 µg/mL (≈ 101 µM).
Molecule `c1ccc2c(NCCc3c[nH]c4ccccc34)c3ccccc3nc2c1` has a solubility kinetic greater than 50.6 µg/mL.
With `COc1ccc(NC(=O)CCC(=O)N2CCCC2)c([N+](=O)[O-])c1` the solubility kinetic was greater than 48.2 µg/mL.
Work on `COc1cccc(C(=O)Nc2sc3c(c2C(=O)O)CCCC3)c1` yielded a solubility kinetic greater than 49.7 µg/mL.
In the case of `CN(C(=O)CCl)C1CCCc2ccccc21` (stereo not drawn), the solubility kinetic was 32.1 µg/mL (≈ 135 µM).
`O=S(=O)(Nc1cccc2ccccc12)c1cccs1` showed a solubility kinetic of 5.1 µg/mL (≈ 17.6 µM).
Molecule `COC(=O)c1ccc(NC(=O)C[n+]2ccccc2C)cc1.[Cl-]` has a solubility kinetic greater than 48.1 µg/mL.
Work on `CCOc1ncccc1C(=O)Nc1ccc2c(c1)OCCCO2` yielded a solubility kinetic greater than 47.2 µg/mL.
With `Cc1cc(C)cc(CN2C(=O)NC3(CCCCCC3)C2=O)c1` the solubility kinetic was 18.1 µg/mL (≈ 60.3 µM).
Molecule `Cn1ncc(Br)c1C(=O)N1CCCCCC1` has a solubility kinetic greater than 42.9 µg/mL.
In the case of `O=C(CSc1nccc(=O)[nH]1)NCc1ccc2c(c1)OCO2`, the solubility kinetic was greater than 47.9 µg/mL.
With `Cc1ccc(N=C2NC(=O)CS2)cc1C` the solubility kinetic was 32.7 µg/mL (≈ 148 µM).
In the case of `Cl.O=[N+]([O-])c1cc(CN(CCO)CCO)ccc1O`, the solubility kinetic was greater than 43.9 µg/mL.
`S=C1NCN(Cc2ccco2)CN1c1cccc2ccccc12` gave a solubility kinetic greater than 48.5 µg/mL.
In the case of `Cc1ccc(NC(=O)O/N=C/c2ccc(Br)cc2)cc1`, the solubility kinetic was 1.4 µg/mL (≈ 4.2 µM).
`CC(=O)NCCNC(=O)c1ccc(-n2c(C)ccc2C)cc1` showed a solubility kinetic of 35.3 µg/mL (≈ 118 µM).
Molecule `CC(NC(=O)c1c(O)c2ccccc2n(C)c1=O)c1ccccc1` (stereo not drawn) has a solubility kinetic of less than 0.3 µg/mL.
In the case of `Cc1c(C(=O)NCCCn2ccnc2)oc2ccccc12`, the solubility kinetic was 34.1 µg/mL (≈ 120 µM).
In the case of `COc1ccc(C(CNC(=O)c2cc(S(=O)(=O)N3CCN(c4ccccc4)CC3)ccc2Cl)N(C)C)cc1` (stereo not drawn), the solubility kinetic was 49.4 µg/mL (≈ 88.7 µM).
In the case of `Cc1ccc(/C=C2\SC(N3CCCCC3)=NC2=O)cc1`, the solubility kinetic was 5.7 µg/mL (≈ 19.9 µM).
Work on `Cc1ccc(-c2csc(NC(=O)c3ccco3)n2)cc1C` yielded a solubility kinetic of 0.7 µg/mL (≈ 2.35 µM).
Work on `O=C1/C(=C/c2ccccn2)SC(=S)N1c1ccc(O)cc1` yielded a solubility kinetic of 0.5 µg/mL (≈ 1.59 µM).
In the case of `CS(=O)(=O)N1CCC(C(=O)NCc2ccc(Cl)cc2)CC1`, the solubility kinetic was greater than 49.6 µg/mL.
Molecule `CC1Cc2ccccc2N1C(=O)c1ccc2nccnc2c1` (stereo not drawn) has a solubility kinetic greater than 43.4 µg/mL.
`C/C(=N\Nc1ccccc1C(=O)O)c1ccncc1` gave a solubility kinetic greater than 38.3 µg/mL.
`O=C(NCC1CC1)Nc1ccc(Cl)cc1` gave a solubility kinetic of 18.9 µg/mL (≈ 84.1 µM).
With `Cc1nnc(SCC(=O)NC23CC4CC(CC(C4)C2)C3)s1` the solubility kinetic was greater than 48.5 µg/mL.
For `CCCOc1ccc(Cn2c(=O)oc3ccc(C)cc32)cc1`, the solubility kinetic was less than 0.6 µg/mL.
`COc1ccc(OCC(=O)Nc2ccccc2Cl)cc1` gave a solubility kinetic of 4.5 µg/mL (≈ 15.4 µM).
For `CCOc1ccc2[nH]c3c(NCCN(C)C)ncnc3c2c1`, the solubility kinetic was greater than 44.9 µg/mL.
Work on `C=CCn1c(C)nc2ccccc2c1=O` yielded a solubility kinetic greater than 30 µg/mL.
`Cc1cc(C)c(S(=O)(=O)NCc2cccs2)cc1C` showed a solubility kinetic of 36.5 µg/mL (≈ 124 µM).
Molecule `COc1ccc(OC)c(NC(=O)C2=C(C)NC(=O)NC2c2cccs2)c1` (stereo not drawn) has a solubility kinetic of 25.3 µg/mL (≈ 67.7 µM).
Work on `S=C(Nc1ccccc1)N(Cc1ccccc1)Cc1ccncc1` yielded a solubility kinetic of 39.2 µg/mL (≈ 118 µM).
For `O=C(Nc1ccc(F)c([N+](=O)[O-])c1)C1CCCO1` (stereo not drawn), the solubility kinetic was greater than 38.1 µg/mL.
`N#Cc1ccc(Oc2c(Cl)cncc2Cl)cc1` showed a solubility kinetic of 23.2 µg/mL (≈ 87.5 µM).
`COC(=O)c1c(NC(=O)c2ccccc2)sc(C(N)=O)c1C` gave a solubility kinetic of 1.8 µg/mL (≈ 5.65 µM).
For `COc1ccccc1N1CCNCC1.Cl`, the solubility kinetic was 28.2 µg/mL.
With `O=C1CCC(C(=O)N2CCCC2)CN1CCc1cccc(F)c1` (stereo not drawn) the solubility kinetic was greater than 47.8 µg/mL.
For `CCCOc1ccc(C2Nc3cccc4cccc(c34)N2)cc1`, the solubility kinetic was 3.8 µg/mL (≈ 12.5 µM).
For `C=CC1CN2CCC1CC2C(OC(C)=O)c1ccnc2ccc(OC)cc12` (stereo not drawn), the solubility kinetic was greater than 55 µg/mL.
`CNC1(C)[C@H]2CC[C@H](C2)C1(C)C.Cl` (stereo partly drawn) gave a solubility kinetic greater than 30.6 µg/mL.
Work on `COc1ccc(C(=O)NCCc2c[nH]c3ccccc23)cc1` yielded a solubility kinetic of 42.6 µg/mL (≈ 145 µM).
With `CCC1CCCCN1C(=S)NC(=O)c1ccco1` (stereo not drawn) the solubility kinetic was greater than 40 µg/mL.
For `O=C(NCc1ccc(Cl)c(Cl)c1)C1CCCC1`, the solubility kinetic was 32.6 µg/mL (≈ 120 µM).
`Cc1ccc(CNC(=O)c2ccc(C)s2)cc1` gave a solubility kinetic of 19.2 µg/mL (≈ 78.3 µM).
`CC(C)Cn1c(-c2cccnc2)nc2c1c(=O)[nH]c(=O)n2CC(C)C` gave a solubility kinetic of 45.7 µg/mL (≈ 134 µM).
`CCN(C(=O)COc1ncnc2ccccc12)C1CCCCC1` showed a solubility kinetic greater than 47 µg/mL.
Molecule `CCOc1ccccc1CN1C2CCC1CC(c1ccc(C)cc1)C2` (stereo not drawn) has a solubility kinetic of 35 µg/mL (≈ 104 µM).
With `CC(=O)c1c(C)[nH]c(C(=O)NCC2CCCCC2)c1C` the solubility kinetic was 23.4 µg/mL (≈ 84.7 µM).
For `CCOCCn1c(N2CCCC2)nc2c1c(=O)n(C)c(=O)n2C`, the solubility kinetic was greater than 48.2 µg/mL.
For `Clc1ccc(N2CCN(c3ccnc(Cl)n3)CC2)cc1`, the solubility kinetic was 2.3 µg/mL (≈ 7.44 µM).
With `CN1CCN(Cc2nnc(-c3ccccc3)o2)CC1` the solubility kinetic was greater than 38.7 µg/mL.
For `Cc1cccc(C)c1OCc1cc(C(=O)NC2CCC(O)CC2)no1` (stereo not drawn), the solubility kinetic was 19.4 µg/mL (≈ 56.3 µM).
`COc1ccc(C2c3ccc(O)cc3Oc3ncn(CCCO)c(=N)c32)cc1` (stereo not drawn) gave a solubility kinetic greater than 56.9 µg/mL.
With `CC(=O)Nc1ccc2sccc2c1` the solubility kinetic was 27.9 µg/mL (≈ 146 µM).
`C=CCn1c(-c2ccc(Cl)cc2)cnc1SC(C)C(N)=O` (stereo not drawn) gave a solubility kinetic of 7.1 µg/mL (≈ 22.1 µM).
Molecule `Cn1ncc(C(=O)Nc2ccc(Cl)cc2)c1C(F)(F)F` has a solubility kinetic greater than 45.6 µg/mL.
Molecule `Cc1ccnc(NCc2ccc(Cl)cc2)c1` has a solubility kinetic of 3.7 µg/mL (≈ 15.9 µM).
With `O=C(c1cccc([N+](=O)[O-])c1)c1ccccn1` the solubility kinetic was greater than 34.2 µg/mL.
`Fc1cccc(NC(=S)NC2CCCCCCC2)c1` showed a solubility kinetic of 2.9 µg/mL (≈ 10.3 µM).
`CC(=O)c1nc(-c2ccccc2)sc1C` showed a solubility kinetic of 12.7 µg/mL (≈ 58.4 µM).
`Cc1ccn2cc(-c3ccc(Br)cc3)nc2c1` showed a solubility kinetic of 1.2 µg/mL (≈ 4.18 µM).
For `Cc1c(C)n(CCC(=O)O)c2ccccc12`, the solubility kinetic was greater than 32.6 µg/mL.
